Like-named read-outs stand apart in the source and are kept apart here.

Consider `CCOC(=O)CCc1cccc(C2(C)CCCOC(=O)N(C)C/C=C/c3c(c(F)cc4[nH]ccc34)Oc3ccc(F)c(c3)-c3ncc2[nH]3)c1` (centres unmarked), for which the ring closure, isolated yield (from CCC[CH2][Sn](/[CH]=C/CN(C)C(=O)OCCCC(C)(c1cccc(CCC(=O)OCC)c1)c1cnc(-c2cc(Oc3c(F)cc4[nH]ccc4c3Br)ccc2F)[nH]1)([CH2]CCC)[CH2]CCC, cc_pd bond, 19-membered ring) came to 66%. `CN1C(=O)OCc2c(c(F)cc3c2ccn3S(=O)(=O)c2ccccc2)Oc2ccc(F)c(c2)-c2nc(nn2C)C(C)(c2cccc(Br)c2)C/C=C\CC1(C)C` (centres unmarked) yielded a ring closure, isolated yield (from (5-(3-(3-(2-(3-Bromophenyl)pent-4-en-2-yl)-1-methyl-1H-1,2,4-triazol-5-yl)-4-fluorophenoxy)-6-fluoro-1 -(phenylsulfonyl)-NH-indol-4-yl)methyl methyl(2-methylpent-4-en-2-yl)carbamate, rcm bond, 19-membered ring, Grubbs II (0.4 eq), toluene, 5.1 mM, 60.0 °C) of 60%. For `CN1CC(C)(C)CCC[C@](C)(c2cccc(I)c2)c2nc(n(C)n2)-c2cc(ccn2)Oc2c(F)cc3[nH]ccc3c2/C=C/C1=O`, the ring closure, isolated yield (from CNCC(C)(C)CCC[C@](C)(c1cccc(I)c1)c1nc(-c2cc(Oc3c(F)cc4[nH]ccc4c3/C=C/C(=O)O)ccn2)n(C)n1, amide bond, 19-membered ring, 2 steps) came to 37%. For `Cn1nc2nc1-c1cc(ccc1F)Oc1c(F)cc3[nH]ccc3c1CCC(=O)NS(=O)(=O)CC=CCC2(C)c1cccc(Br)c1` (centres unmarked), the ring closure, isolated yield (from C=CCC(C)(c1cccc(Br)c1)c1nc(-c2cc(Oc3c(F)cc4[nH]ccc4c3CCC(=O)NS(=O)(=O)CC=C)ccc2F)n(C)n1, rcm bond, 19-membered ring, Grubbs II (0.2 eq), toluene, 2.4 mM, 65.0 °C, 0.75 h) is 60%.

Molecule “Methyl (2S)-3-[3-[(13E)-22,28-difluoro-3,6,10,10-tetramethyl-12,12-dioxo-]9-(p-tolylsulfonyl)-24-oxa-12A6-thia-3,4,11,19,30-pentazapentacyclo[23.3.1.12,5.015,23.016,20]triaconta-1(29),2(30),4,13,15,17,20,22,25,27-decaen-6-yl]phenyl]-2-methyl-propanoate” registered a ring closure, isolated yield (cc_pd bond, 18-membered ring, Pd(PtBu3)2/TEA, toluene, 1.75 mM, 100.0 °C) of 65%.

Source of the values: US20250197420A1, “MACROCYCLIC COMPOUNDS, COMPOSITIONS, AND METHODS OF USING THEREOF” (Sionna Therapeutics Inc., priority 2022, published 2025).
